Measurements from ChEMBL document CHEMBL1127719, “Synthesis and serotonergic activity of benzofuran and dihydrogenzofuran analogues of 5-carboxamidotryptamine” (Bioorg Med Chem Lett, 1994).
pEC50, pIC50: −log10 of the molar value.

Assays:
[1] = molecular target: 5-hydroxytryptamine receptor 2A (Rattus norvegicus, UniProt P14842); test: In Vitro Binding affinity againist 5-HT2A receptor by displacing [3H]-DOB from rat cortex homogenates
[2] = molecular target: T1, 5-hydroxytryptamine receptor 3A (Rattus norvegicus, UniProt P35563); test: In Vitro Binding affinity againist 5-hydroxytryptamine 3 receptor by displacing [3H]-Q-ICS 205-930 from rat cortex homogenates
T1 sequence (P35563 whole entry): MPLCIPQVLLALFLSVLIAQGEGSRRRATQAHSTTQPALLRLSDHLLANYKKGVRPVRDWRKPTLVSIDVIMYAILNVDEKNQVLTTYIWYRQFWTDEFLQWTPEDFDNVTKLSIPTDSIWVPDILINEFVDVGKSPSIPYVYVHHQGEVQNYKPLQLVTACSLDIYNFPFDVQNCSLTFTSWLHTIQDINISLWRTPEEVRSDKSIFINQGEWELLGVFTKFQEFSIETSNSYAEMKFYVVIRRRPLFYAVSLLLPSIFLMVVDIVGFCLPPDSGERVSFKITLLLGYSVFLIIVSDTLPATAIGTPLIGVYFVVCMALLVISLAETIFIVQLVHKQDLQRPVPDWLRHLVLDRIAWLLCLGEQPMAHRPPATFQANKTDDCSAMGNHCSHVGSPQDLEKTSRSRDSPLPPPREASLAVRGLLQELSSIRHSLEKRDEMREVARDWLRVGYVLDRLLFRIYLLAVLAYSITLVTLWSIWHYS

[3] = species: Oryctolagus cuniculus; test: In Vitro functional activity in rabbit saphenous vein
[4] = species: Oryctolagus cuniculus; test: Relative maximum in rabbit by obtaining the maximum contraction relative to the maximum response with 1 uM 5-HT; assay type: functional

Sequence of 5-hydroxytryptamine receptor 2A (P14842 whole entry): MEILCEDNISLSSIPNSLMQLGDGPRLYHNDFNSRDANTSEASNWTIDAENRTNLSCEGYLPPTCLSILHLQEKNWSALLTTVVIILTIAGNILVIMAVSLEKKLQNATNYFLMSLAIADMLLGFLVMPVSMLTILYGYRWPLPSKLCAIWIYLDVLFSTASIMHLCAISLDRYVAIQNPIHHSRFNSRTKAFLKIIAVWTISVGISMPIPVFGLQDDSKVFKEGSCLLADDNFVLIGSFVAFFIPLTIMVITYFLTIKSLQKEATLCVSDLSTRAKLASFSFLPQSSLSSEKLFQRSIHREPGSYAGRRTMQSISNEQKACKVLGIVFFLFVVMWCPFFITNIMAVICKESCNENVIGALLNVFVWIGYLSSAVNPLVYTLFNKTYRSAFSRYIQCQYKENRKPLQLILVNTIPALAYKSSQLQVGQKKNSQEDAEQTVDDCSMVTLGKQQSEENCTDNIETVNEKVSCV

pIC50 [1] | pIC50 [2] | Structure (SMILES) | pEC50 [3] | Activity [4]
5.47 | 5.40 | CN(C)CCc1coc2ccc(C(N)=O)cc12 |  | 
5.77 | 5.13 | NCCc1coc2ccc(C(N)=O)cc12 | 6.80 | 1.2
< 5.00 | 5.37 | NCCC1COc2ccc(C(N)=O)cc21 (stereo unspecified) |  | 

Structure (SMILES) | pIC50 [1] | pIC50 [2] | pEC50 [3] | Activity [4]
NCCc1c[nH]c2ccc(C(N)=O)cc12 | 4.66 |  | 7.55 | 1.06
